In patent US20040009949A1, “Method for treating autoimmune or inflammatory diseases with combinations of inhibitory oligonucleotides and small molecule antagonists of immunostimulatory CpG nucleic acids” (Coley Pharmaceutical Group, Inc., priority 2002, published 2004):

Target: T1, human TLR9 (Homo sapiens, UniProt Q9NR96)
T1 construct: expressed in transfected cells
T1 sequence (Q9NR96 26-1032): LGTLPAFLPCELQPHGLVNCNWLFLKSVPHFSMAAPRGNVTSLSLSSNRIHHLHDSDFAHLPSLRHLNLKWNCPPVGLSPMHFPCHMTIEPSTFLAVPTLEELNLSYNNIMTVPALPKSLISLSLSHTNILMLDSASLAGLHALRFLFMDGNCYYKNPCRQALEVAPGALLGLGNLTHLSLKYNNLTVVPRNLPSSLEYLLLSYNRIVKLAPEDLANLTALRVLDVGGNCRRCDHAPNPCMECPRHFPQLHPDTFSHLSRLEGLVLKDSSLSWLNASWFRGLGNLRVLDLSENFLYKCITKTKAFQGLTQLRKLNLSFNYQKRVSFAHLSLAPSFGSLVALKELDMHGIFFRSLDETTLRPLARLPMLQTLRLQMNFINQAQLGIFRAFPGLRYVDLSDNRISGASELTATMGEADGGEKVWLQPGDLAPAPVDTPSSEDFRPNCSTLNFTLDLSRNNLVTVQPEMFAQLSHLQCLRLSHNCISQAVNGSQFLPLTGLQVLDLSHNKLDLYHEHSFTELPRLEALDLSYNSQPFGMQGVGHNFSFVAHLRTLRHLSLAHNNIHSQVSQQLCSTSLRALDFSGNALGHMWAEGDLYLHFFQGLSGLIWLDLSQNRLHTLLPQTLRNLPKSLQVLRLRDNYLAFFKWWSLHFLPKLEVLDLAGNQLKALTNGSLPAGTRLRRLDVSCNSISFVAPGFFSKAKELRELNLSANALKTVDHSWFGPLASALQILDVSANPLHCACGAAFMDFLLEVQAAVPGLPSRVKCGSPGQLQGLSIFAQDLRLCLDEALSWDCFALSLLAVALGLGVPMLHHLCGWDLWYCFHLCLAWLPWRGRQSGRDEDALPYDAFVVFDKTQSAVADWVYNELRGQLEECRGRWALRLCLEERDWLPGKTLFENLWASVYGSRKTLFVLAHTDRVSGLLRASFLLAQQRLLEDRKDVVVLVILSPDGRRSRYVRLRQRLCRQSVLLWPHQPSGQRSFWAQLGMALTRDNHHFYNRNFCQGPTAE
Assay: NF-κB-luciferase activation of stably transfected 293-hTLR9-luc cells by CpG ODN 2006 in presence of inhibitory ODN 2088 and/or chloroquine
Type: cell-based
Conditions: as Table 1: ODN 2088 0.05 μM
Procedure: To generate stable clones expressing human TLR9, murine TLR9, or either TLR9 with the NF-κB-luc reporter plasmid, 293 cells were transfected in 10 cm plates (2×10^6 cells/plate) with 16 μg of DNA and selected with 0.7 mg/mL G418 (PAA Laboratories GmbH, Cölbe, Germany). The clones were also screened for IL-8 production or NF-κB-luciferase activity after stimulation with ODN. Four different types of clones were generated.
NF-κB activation was measured by determining luciferase activity of cells 16 h later. Results are given as fold induction above medium background.

Row | Compound | Fold increase of EC50 compared to ODN 2006 + TE (chloroquine 0.039 μg/mL) [fold] | Fold increase of EC50 compared to ODN 2006 + TE (chloroquine 0.078 μg/mL) [fold] | Fold increase of EC50 compared to ODN 2006 + TE (chloroquine 0.3125 μg/mL) [fold]
1 | CCN(CC)CCCC(C)Nc1ccnc2cc(Cl)ccc12 (stereo not drawn) [Chloroquine, chloroquine] | 2.3 | 2.6 | 3.6
2 | ODN 2088: inhibitory ODN, TCCTGGCGGGGAAGT, SEQ ID NO:7 (chemistry not given here) | 14.7 | 4.2 | 8.0
